Results reported in BindingDB's records for PubMed 9584223 (University of Bath, 1998).
Values joined by “and” are separate entries in the source; they are usually repeats but may differ in a detail not shown here. Equal entries are not always repeated.

These compounds were tested against Neuronal acetylcholine receptor subunit alpha-4 (Homo sapiens, UniProt P43681).
Sequence of Neuronal acetylcholine receptor subunit alpha-4 (P43681 whole entry): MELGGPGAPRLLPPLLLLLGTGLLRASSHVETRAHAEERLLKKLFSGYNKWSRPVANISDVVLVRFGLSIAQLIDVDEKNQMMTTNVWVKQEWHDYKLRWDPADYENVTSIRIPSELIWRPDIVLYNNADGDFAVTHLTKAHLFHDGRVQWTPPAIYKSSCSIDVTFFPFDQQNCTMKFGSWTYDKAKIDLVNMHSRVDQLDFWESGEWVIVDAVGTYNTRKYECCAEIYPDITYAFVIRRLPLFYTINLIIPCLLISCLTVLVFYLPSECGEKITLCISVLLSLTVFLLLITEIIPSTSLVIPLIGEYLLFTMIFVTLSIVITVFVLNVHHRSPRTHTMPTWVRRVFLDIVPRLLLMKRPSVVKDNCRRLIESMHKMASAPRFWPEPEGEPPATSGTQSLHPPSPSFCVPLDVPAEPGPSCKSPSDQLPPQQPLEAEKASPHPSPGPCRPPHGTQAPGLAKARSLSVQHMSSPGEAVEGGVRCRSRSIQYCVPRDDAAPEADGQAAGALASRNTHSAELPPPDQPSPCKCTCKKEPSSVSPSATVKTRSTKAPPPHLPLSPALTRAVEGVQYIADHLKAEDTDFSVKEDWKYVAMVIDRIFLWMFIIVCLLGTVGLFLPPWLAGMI
With O=c1cccc2n1C[C@H]1CNC[C@H]2C1 [(1S,9R)-7,11-diazatricyclo[7.3.1.0~2,7~]trideca-2,4-dien-6-one] the Ki was 0.017 µM and 0.0033 µM.
With Cc1cc([C@@H]2CCCN2C)on1 [ABT-418] the Ki was 0.0017 µM.
For COc1cc2c3cc1Oc1cc(ccc1O)C[C@H]1c4c(cc(OC)c(O)c4Oc4ccc(cc4)C[C@@H]3N(C)CC2)CC[N+]1(C)C [CAS_57-94-3], the Ki was 1 µM and > 10 µM.
With C[N+](C)(C)CCCCCC[N+](C)(C)C [Hexamethoniumdibromide] the Ki was > 10 µM.
CNC1(C)C2CCC(C2)C1(C)C (stereo unspecified) [Methyl-(2,3,3-trimethyl-bicyclo[2.2.1]hept-2-yl)-amine(Mecamylamine)] was tested, and the Ki was > 10 µM.
CCN1C[C@]2(COC(=O)c3ccccc3-n3c(O)cc(C)c3O)CC[C@H](OC)[C@]34C5C[C@@H]6[C@@H](OC)C[C@@](O)(C5[C@H]6OC)[C@@](O)(C13)[C@@H](OC)C24 (stereo partly drawn) [[(1S,4S,5R,6S,8R,9R,13S,16S,18S)-11-ethyl-8,9-dihydroxy-4,6,16,18-tetramethoxy-11-azahexacyclo[7.7.2.1^{2,5}.0^{1,10}.0^{3,8}.0^{13,17}]nonadecan-13-yl]methyl 2-[(3S)-3-methyl-2,5-dioxopyrrolidin-1-yl]benzoate] was tested, and the Ki was 6.1 µM and 1.6 µM.
